This assay concerns the target Human Factor D (Homo sapiens (Human), UniProt P00746). Kind of assay: Human Factor D Assay. To be noted: Human Factor D 80 nM, substrate Z-L-Lys-SBzl, assay according to Example 3. It is filed as biochemical. On the procedure: The assay according to Example 3 was used to determine the IC50's of the compounds. Other standard factor D inhibition assays are also available.
Human Factor D (purified from human serum, Complement Technology, Inc.) at 80 nM final concentration is incubated with test compound at various concentrations for 5 min at room temperature in 50 mM Tris, 1M NaCl, pH 7.5. A synthetic substrate Z-L-Lys-SBzl and DTNB (Ellman's reagent) are added to final concentrations of 100 μM each. Absorbance at 405 nm (A405) is recorded at 30 second intervals for 30 min using a microplate spectrophotometer. IC50 values are calculated by nonlinear regression of complement Factor D reaction rates as a function of test compound concentration.
Sequence of Human Factor D (P00746 26-253): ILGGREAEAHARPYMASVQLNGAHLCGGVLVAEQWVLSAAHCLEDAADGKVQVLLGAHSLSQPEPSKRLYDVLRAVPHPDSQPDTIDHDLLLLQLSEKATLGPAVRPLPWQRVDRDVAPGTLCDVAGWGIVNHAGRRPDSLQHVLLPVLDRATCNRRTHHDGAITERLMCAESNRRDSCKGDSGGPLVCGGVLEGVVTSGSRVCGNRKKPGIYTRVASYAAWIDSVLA
In turn, `CC(=O)c1cn(CC(=O)N2[C@H](C(=O)Nc3nc(C(F)(F)F)c(F)cc3C)C[C@@]3(C)C[C@@H]23)c2c(C)cc(-c3ccc4nc(C)nn4c3)cc12` [Compound 19, (1R,3S,5R)-2-(2-(3-acetyl-7-methyl-5-(2-methyl-[1,2,4]triazolo[1,5-a]pyr-idin-6-yl)-1H-indol-1-yl)-acetyl)-N-(5-fluoro-3-methyl-6-(trifluorometh-yl)pyridin-2-yl)-5-methyl-2-azabicyclo[3.1.0]hexane-3-carboxamide] yielded a half-maximal inhibitory concentration (IC50) of less than 1000 nM.

In turn, `CC(=O)c1cn(CC(=O)N2[C@H](C(=O)Nc3nc(Br)ccc3C)C[C@@]3(C)C[C@@H]23)c2cc3c(cc12)NC1(COC1)CO3` [Compound 20, (1R,3S,5R)-2-(2-(8′-acetyl-1′H-spiro[oxetane-3,2′-[1,4]oxazino[3,2-f]indol]-6′(3′H)-yl)acetyl)-N-(6-bromo-3-methylpyridin-2-yl)-5-methyl-2-azabicyclo [3.1.0]hexane-3-carbox-amide] showed a half-inhibitory concentration (IC50) of less than 1000 nM.

Regarding `CC(=O)c1cn(CC(=O)N2[C@H](C(=O)Nc3nc(Br)ccc3Cl)C[C@@]3(C)C[C@@H]23)c2c(C)nc(-c3cnc(C)nc3)cc12` [Compound 21, (1R,3S,5R)-2-(2-(3-acetyl-7-methyl-5-(2-methylpyr-imidin-5-yl)-1H-pyrrolo [2,3-c]pyridin-1-yl)acetyl)-N-(6-bromo-3-chloropyr-idin-2-yl)-5-methyl-2-aza-bicyclo[3.1.0]hexane-3-carboxamide], the concentration for half-maximal inhibition (IC50) is less than 1000 nM.

As for `CC(=O)c1cn(CC(=O)N2[C@H](C(=O)Nc3nc(C(F)(F)F)ccc3C)C[C@@]3(C)C[C@@H]23)c2c(C)cc(-c3ccc4nc(C#N)nn4c3)cc12` [Compound 22, (1R,3S,5R)-2-(2-(3-acetyl-5-(2-cyano-[1,2,4]triazolo [1,5-a]pyridin-6-yl)-7-methyl-1H-indol-1-yl)acet-yl)-5-methyl-N-(3-methyl-6-(trifluoromethyl)pyridin-2-yl)-2-azabicyclo[3.1.0] hexane-3-carboxamide], the half-inhibitory concentration (IC50) is less than 1000 nM.

Turning to `CC(=O)c1cn(CC(=O)N2[C@H](C(=O)Nc3nc(C(F)(F)F)ccc3C#N)C[C@@]3(C)C[C@@H]23)c2c(C)nc(-c3cnc4cc(C)nn4c3)cc12` [Compound 23, (1R,3S,5R)-2-(2-(3-acetyl-7-methyl-5-(2-methylpyr-azolo[1,5-a]pyrimidin-6-yl)-1H-pyrrolo[2,3-c]pyr-idin-1-yl)acetyl)-N-(3-cyano-6-(trifluoromethyl)-pyridin-2-yl)-5-methyl-2-azabicyclo[3.1.0]hexane-3-carboxamide], the IC50 is less than 1000 nM.

`CC(=O)c1cn(CC(=O)N2[C@H](C(=O)Nc3nc(C(F)(F)F)ccc3Cl)C[C@@]3(C)C[C@@H]23)c2c(C)nc(-c3cnc4cc(C)nn4c3)cc12` [Compound 24, (1R,3S,5R)-2-(2-(3-acetyl-7-methyl-5-(2-methylpyr-azolo[1,5-a]pyrimidin-6-yl)-1H-pyrrolo[2,3-c]pyr-idin-1-yl)acetyl)-N-(3-chloro-6-(trifluoromethyl)-pyridin-2-yl)-5-methyl-2-azabicyclo[3.1.0]hexane-3-carboxamide] registered a half-maximal inhibitory concentration (IC50) of less than 1000 nM.

For the molecule `CC(=O)c1cn(CC(=O)N2C[C@@](F)(CF)C[C@H]2C(=O)Nc2nc(C(F)(F)F)ccc2C)c2c(C)nc(-c3cnc4cc(C)nn4c3)cc12` [Compound 25, (2S,4R)-1-(2-(3-acetyl-7-methyl-5-(2-methylpyr-azolo[1,5-a]pyrimidin-6-yl)-1H-pyrrolo[2,3-c]pyr-idin-1-yl)acetyl)-4-fluoro-4-(fluoromethyl)-N-(3-methyl-6-(trifluorometh-yl)pyridin-2-yl)pyrroli-dine-2-carboxamide], the concentration for half-maximal inhibition (IC50) was less than 1000 nM.

With `CC(=O)c1cn(CC(=O)N2[C@H](C(=O)Nc3nc(Br)ccc3C)C[C@@]3(C)C[C@@H]23)c2ccc(NC3(C)COC3)cc12` [Compound 26, (1R,3S,5R)-2-(2-(3-acetyl-5-((3-methyloxetan-3-yl)-amino)-1H-indol-1-yl)-acetyl)-N-(6-bromo-3-methylpyridin-2-yl)-5-methyl-2-azabicyclo[3.1.0] hexane-3-carboxamide], the IC50 was less than 1000 nM.

`CC(=O)c1cn(CC(=O)N2[C@H](C(=O)N[C@H](C)C(F)=C(C)C)C[C@@]3(C)C[C@@H]23)c2c(C)cc(-c3cnc4cc(C)nn4c3)cc12` [Compound 27, (1R,3S,5R)-2-(2-(3-acetyl-7-methyl-5-(2-methylpyr-azolo[1,5-a]pyrimidin-6-yl)-1H-indol-1-yl)acetyl)-N-((R)-3-fluoro-4-methyl-pent-3-en-2-yl)-5-methyl-2-azabicyclo[3.1.0]hexane-3-carboxamide]: the IC50 was less than 1000 nM.

For the molecule `CC(=O)c1cn(CC(=O)N2[C@H](C(=O)N[C@H](C)C(F)=C(C)C)C[C@@]3(C)C[C@@H]23)c2c(C)cc(-c3cnc(C)nc3)cc12` [Compound 28, (1R,3S,5R)-2-(2-(3-acetyl-7-methyl-5-(2-methylpyr-imidin-5-yl)-1H-indol-1-yl)acetyl)-N-((R)-3-fluoro-4-methylpent-3-en-2-yl)-5-methyl-2-azabicyclo[3.1.0] hexane-3-carboxamide], the half-inhibitory concentration (IC50) is less than 1000 nM.

For the molecule `CC(=O)c1cn(CC(=O)N2[C@H](C(=O)N[C@H](C)C(F)=C(C)C)C[C@@]3(C)C[C@@H]23)c2c(C)nc(-c3cnc4cc(C)nn4c3)cc12` [Compound 29, (1R,3S,5R)-2-(2-(3-acetyl-7-methyl-5-(2-methylpyr-azolo[1,5-a]pyrimidin-6-yl)-1H-pyrrolo[2,3-c]pyr-idin-1-yl)acetyl)-N-((R)-3-fluoro-4-methylpent-3-en-2-yl)-5-methyl-2-azabi-cyclo[3.1.0]hexane-3-car-boxamide], the IC50 is less than 1000 nM.

With `CC(=O)c1cn(CC(=O)N2[C@H](C(=O)N[C@@H](C)C(F)=C(C)C)C[C@@]3(C)C[C@@H]23)c2c(C)cc(-c3cnc4cc(C)nn4c3)cc12` [Compound 30, (1R,3S,5R)-2-(2-(3-acetyl-7-methyl-5-(2-methylpyr-azolo[1,5-a]pyrimidin-6-yl)-1H-indol-1-yl)acetyl)-N-((S)-3-fluoro-4-methyl-pent-3-en-2-yl)-5-methyl-2-azabicyclo[3.1.0]hexane-3-carboxamide], the concentration for half-maximal inhibition (IC50) was less than 1000 nM.

On to `CC(=O)c1cn(CC(=O)N2[C@H](C(=O)N[C@@H](C)C(F)=C(C)C)C[C@@]3(C)C[C@@H]23)c2c(C)cc(-c3cnc(C)nc3)cc12` [Compound 31, (1R,3S,5R)-2-(2-(3-acetyl-7-methyl-5-(2-methylpyr-imidin-5-yl)-1H-indol-1-yl)acetyl)-N-((S)-3-fluoro-4-methylpent-3-en-2-yl)-5-methyl-2-azabicyclo[3.1.0] hexane-3-carboxamide], for which the IC50 is less than 1000 nM.

With `CC(=O)c1cn(CC(=O)N2[C@H](C(=O)N[C@@H](C)C(F)=C(C)C)C[C@@]3(C)C[C@@H]23)c2c(C)nc(-c3cnc4cc(C)nn4c3)cc12` [Compound 32, (1R,3S,5R)-2-(2-(3-acetyl-7-methyl-5-(2-methylpyr-azolo[1,5-a]pyrimidin-6-yl)-1H-pyrrolo[2,3-c]pyr-idin-1-yl)acetyl)-N-((S)-3-fluoro-4-methylpent-3-en-2-yl)-5-methyl-2-azabi-cyclo[3.1.0]hexane-3-car-boxamide], the half-maximal inhibitory concentration (IC50) is less than 1000 nM.

Take `CC(=O)c1cn(CC(=O)N2C[C@@](F)(CF)CC2C(=O)Nc2nc(C(F)(F)F)ccc2C#N)c2c(C)nc(-c3cnc4cc(C)nn4c3)cc12` (stereo partly drawn) [Compound 33, (4R)-1-(2-(3-acetyl-7-methyl-5-(2-methylpyr-azolo[1,5-a]pyrimidin-6-yl)-1H-pyrrolo[2,3-c]pyr-idin-1-yl)acetyl)-N-(3-cyano-6-(trifluoromethyl)-pyridin-2-yl)-4-fluoro-4-(fluoromethyl)pyrrolidine-2-carboxamide]: the IC50 is less than 1000 nM.

Molecule `CC(=O)c1cn(CC(=O)N2C[C@H](F)C[C@H]2C(=O)N[C@H](C)C(F)=C(C)C)c2c(C)cc(-c3cnc4cc(C)nn4c3)cc12` [Compound 34, (2S,4R)-1-(2-(3-acetyl-7-methyl-5-(2-methylpyr-azolo[1,5-a]pyrimidin-6-yl)-1H-indol-1-yl)acetyl)-4-fluoro-N-((R)-3-fluoro-4-methylpent-3-en-2-yl)-pyrrolidine-2-carboxamide] registered a 50% inhibitory concentration (IC50) of less than 1000 nM.

As for `CC(=O)c1cn(CC(=O)N2C[C@H]3C[C@H]3[C@H]2C(=O)N[C@H](C)C(F)=C(C)C)c2c(C)cc(-c3cnc4cc(C)nn4c3)cc12` [Compound 35, (1R,2S,5S)-3-(2-(3-acetyl-7-methyl-5-(2-methylpyr-azolo[1,5-a]pyrimidin-6-yl)-1H-indol-1-yl)acetyl)-N-((R)-3-fluoro-4-methyl-pent-3-en-2-yl)-3-azabi-cyclo[3.1.0]hexane-2-car-boxamide], the half-maximal inhibitory concentration (IC50) was less than 1000 nM.

For `CC(=O)c1cn(CC(=O)N2[C@H](C(=O)N[C@H](C)C(F)=C(C)C)C[C@@]3(C)C[C@@H]23)c2c(C)nc(-c3cnc(C)nc3)cc12` [Compound 36, (1R,3S,5R)-2-(2-(3-acetyl-7-methyl-5-(2-methylpyr-imidin-5-yl)-1H-pyrrolo [2,3-c]pyridin-1-yl)acetyl)-N-((R)-3-fluoro-4-methyl-pent-3-en-2-yl)-5-methyl-2-azabicyclo[3.1.0]hexane-3-carboxamide], the IC50 was less than 1000 nM.

`CC(=O)c1cn(CC(=O)N2C[C@H](F)C[C@H]2C(=O)N[C@@H](C)C(F)=C(C)C)c2c(C)cc(-c3cnc4cc(C)nn4c3)cc12` [Compound 37, (2S,4R)-1-(2-(3-acetyl-7-methyl-5-(2-methylpyr-azolo[1,5-a]pyrimidin-6-yl)-1H-indol-1-yl)acetyl)-4-fluoro-N-((S)-3-fluoro-4-methylpent-3-en-2-yl)pyr-rolidine-2-carboxamide] had a half-maximal inhibitory concentration (IC50) of less than 1000 nM.

The record behind these values is patent US20250197403A1, “HETEROARYL COMPOUNDS FOR TREATMENT OF COMPLEMENT FACTOR D MEDIATED DISORDERS” (Achillion Pharmaceuticals, Inc., priority 2020, published 2025).
